In patent US5532366A, “Heterocyclic amides” (Zeneca Limited, priority 1992, dated 1996):

Target: T1, human leukocyte elastase (HLE) (Homo sapiens, UniProt P08246)
T1 sequence (P08246 30-267): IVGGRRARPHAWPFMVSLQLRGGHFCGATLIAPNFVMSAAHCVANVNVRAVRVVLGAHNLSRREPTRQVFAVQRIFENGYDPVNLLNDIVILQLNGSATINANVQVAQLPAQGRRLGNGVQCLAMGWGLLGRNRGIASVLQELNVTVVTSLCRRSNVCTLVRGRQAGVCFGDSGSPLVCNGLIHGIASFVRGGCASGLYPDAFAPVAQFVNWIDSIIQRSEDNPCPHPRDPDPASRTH
Assay: Inhibition of human leukocyte elastase (HLE) on methoxy-succinyl-alanyl-alanyl-prolyl-valine-p-nitroanilide, Ki (Inhibition Measurements)
Type: biochemical
Conditions: kinetic determination of dissociation constant; substrate methoxy-succinyl-alanyl-alanyl-prolyl-valine-p-nitroanilide
Experimental: The potency of a Compound to act as an inhibitor of human leukocyte elastase (HLE) on the low molecular weight peptide substrate methoxy-succinyl-alanyl-alanyl-prolyl-valine-p-nitroanilide is determined as described in U.S. Pat. No. 4,910,190. The potency of an inhibitor is evaluated by obtaining a kinetic determination of the dissociation constant, Ki, of the complex formed from the interaction of the inhibitor with HLE. If a Compound is found to be a "slow-binding" inhibitor of HLE, special methods of analysis to accurately determine Ki values for the inhibition of HLE are carried out as described in U.S. Pat. No. 4,910,190.

Ki: 44 nM
SMILES: CC(C)C(NC(=O)Cn1ccc2c(=O)n(CC(=O)OCc3ccccc3)c(=O)[nH]c2c1=O)C(=O)C(F)(F)F (stereo not shown) [Example 13]
